In patent US20150313228A1, “SYNERGISTIC HERBICIDAL COMBINATIONS AND METHODS OF USE” (priority 2012, published 2015):

How the values were obtained:
[1] = system: broad-leaf and grass weed species; assay: Field testing of pre-emergence application of dicamba and acetochlor in Argentina and/or South Africa (Example 10); settings: for percent control Y (DIACAMBA OR ATRAZINE ALONE): early rating (14 day); for Y (dicamba alone): late rating (28 day);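 as to all read-outs here: percent weed control in field trials, rated at 14 days (early) and 28 days (late) after treatment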
velvetleaf = assay: Post-emergence application in velvetleaf under greenhouse conditions (Example 8); format: in vivo
Excerpt: The following testing protocol was employed to evaluate the post-emergence application of herbicides and herbicide combinations as described in the following examples unless otherwise specified. The weed species to be treated were planted in 3.5 inch pots containing redi-earth potting mix and grown under greenhouse conditions. When the weed species reached a height of about four inches, herbicide was applied at the specified application rate using a track sprayer with a flat even nozzle type, 9501E nozzle size, and spray pressure of 165 kPa. After the application of the herbicide(s), the pots were only sub-irrigated as needed. Throughout the test period, temperature was maintained from about 20° C. to about 30° C. and relative humidity was maintained at about 30%. The plants were rated visually and percentage of weed control was determined for each treatment at 15 to 21 days after herbicide application.
Post-emergence application of several herbicides and herbicide combinations was evaluated in velvetleaf under greenhouse conditions. The plants were rated visually and percentage of weed control was determined at 24 days after herbicide application. The herbicides and herbicide combinations evaluated are listed in Table 8-A below together with the corresponding percent control data. The data represent an average value (n=6).
The results of the analysis are reported below in Table 8-B (glyphosate+dicamba), Table 8-C(glyphosate+metribuzin), and Table 8-D (dicamba+metribuzin).

## COc1c(Cl)ccc(Cl)c1C(=O)O [Dicamba, 3,6-dichloro-2-methoxy benzoic acid]
[1]; AMADE, 560 g/ha
  percent control Y (DIACAMBA OR ATRAZINE ALONE): 99.3%
  Y (dicamba alone): 83.1%
[1]; AMAQU, 280 g/ha
  percent control Y (DIACAMBA OR ATRAZINE ALONE): 52.9%
  Y (dicamba alone): 40.6%
[1]; AMAQU, 560 g/ha
  percent control Y (DIACAMBA OR ATRAZINE ALONE): 61.4%
  Y (dicamba alone): 54.3%
[1]; ANOCR, 280 g/ha
  percent control Y (DIACAMBA OR ATRAZINE ALONE): 53.0%
  Y (dicamba alone): 40.5%
[1]; ANOCR, 560 g/ha
  percent control Y (DIACAMBA OR ATRAZINE ALONE): 66.1%
  Y (dicamba alone): 54.5%
[1]; BIDPI, 280 g/ha
  percent control Y (DIACAMBA OR ATRAZINE ALONE): 2.3%
  Y (dicamba alone): 5.0%
[1]; BIDPI, 560 g/ha
  percent control Y (DIACAMBA OR ATRAZINE ALONE): 74.5%
  Y (dicamba alone): 72.5%
[1]; BRAER, 560 g/ha
  Y (dicamba alone): 67.5%
[1]; CHEAL, 280 g/ha
  percent control Y (DIACAMBA OR ATRAZINE ALONE): 56.7%
  Y (dicamba alone): 38.2%
[1]; CHEAL, 560 g/ha
  percent control Y (DIACAMBA OR ATRAZINE ALONE): 96.7%
  Y (dicamba alone): 86.7%
[1]; CHRGA, 280 g/ha
  Y (dicamba alone): 6.2%
[1]; CHRGA, 560 g/ha
  percent control Y (DIACAMBA OR ATRAZINE ALONE): 98.0%
  Y (dicamba alone): 100.0%
[1]; COMBE, 280 g/ha
  percent control Y (DIACAMBA OR ATRAZINE ALONE): 2.7%
  Y (dicamba alone): 10.0%
[1]; COMBE, 560 g/ha
  percent control Y (DIACAMBA OR ATRAZINE ALONE): 75.0%
  Y (dicamba alone): 76.3%
[1]; CONFA, 280 g/ha
  percent control Y (DIACAMBA OR ATRAZINE ALONE): 1.3%
  Y (dicamba alone): 6.2%
[1]; CONFA, 560 g/ha
  percent control Y (DIACAMBA OR ATRAZINE ALONE): 17.5%
  Y (dicamba alone): 55.0%
[1]; CYNDA, 280 g/ha
  percent control Y (DIACAMBA OR ATRAZINE ALONE): 28.8%
[1]; CYNDA, 560 g/ha
  percent control Y (DIACAMBA OR ATRAZINE ALONE): 47.7%
[1]; CYPES, 280 g/ha
  percent control Y (DIACAMBA OR ATRAZINE ALONE): 1.0%
  Y (dicamba alone): 5.0%
[1]; CYPES, 560 g/ha
  percent control Y (DIACAMBA OR ATRAZINE ALONE): 65.0%
  Y (dicamba alone): 63.3%
[1]; CYPRO, 280 g/ha
  percent control Y (DIACAMBA OR ATRAZINE ALONE): 42.3%
  Y (dicamba alone): 0.8%
[1]; CYPRO, 560 g/ha
  percent control Y (DIACAMBA OR ATRAZINE ALONE): 44.4%
  Y (dicamba alone): 15.4%
[1]; DATFE, 280 g/ha
  percent control Y (DIACAMBA OR ATRAZINE ALONE): 18.5%
  Y (dicamba alone): 16.7%
[1]; DATFE, 560 g/ha
  percent control Y (DIACAMBA OR ATRAZINE ALONE): 59.6%
  Y (dicamba alone): 58.5%
[1]; DIGER, 280 g/ha
  percent control Y (DIACAMBA OR ATRAZINE ALONE): 2.5%
  Y (dicamba alone): 10.0%
[1]; DIGER, 560 g/ha
  percent control Y (DIACAMBA OR ATRAZINE ALONE): 98.0%
  Y (dicamba alone): 100.0%
[1]; DIGSA, 280 g/ha
  percent control Y (DIACAMBA OR ATRAZINE ALONE): 32.7%
  Y (dicamba alone): 23.8%
[1]; DIGSA, 560 g/ha
  percent control Y (DIACAMBA OR ATRAZINE ALONE): 45.6%
  Y (dicamba alone): 32.7%
[1]; DTTAE, 280 g/ha
  Y (dicamba alone): 6.2%
[1]; DTTAE, 560 g/ha
  Y (dicamba alone): 100.0%
[1]; ELEAF, 280 g/ha
  percent control Y (DIACAMBA OR ATRAZINE ALONE): 100.0%
  Y (dicamba alone): 8.0%
[1]; ELEAF, 560 g/ha
  percent control Y (DIACAMBA OR ATRAZINE ALONE): 100.0%
  Y (dicamba alone): 97.5%
[1]; HIBCA, 280 g/ha
  percent control Y (DIACAMBA OR ATRAZINE ALONE): 1.8%
  Y (dicamba alone): 11.3%
[1]; HIBCA, 560 g/ha
  percent control Y (DIACAMBA OR ATRAZINE ALONE): 42.5%
  Y (dicamba alone): 55.0%
[1]; IPOBA, 280 g/ha
  Y (dicamba alone): 8.8%
[1]; IPOBA, 560 g/ha
  Y (dicamba alone): 0.0%
[1]; IPOPD, 280 g/ha
  percent control Y (DIACAMBA OR ATRAZINE ALONE): 2.6%
  Y (dicamba alone): 10.0%
[1]; IPOPD, 560 g/ha
  percent control Y (DIACAMBA OR ATRAZINE ALONE): 21.3%
  Y (dicamba alone): 45.0%
[1]; OVERALL, 280 g/ha
  percent control Y (DIACAMBA OR ATRAZINE ALONE): 36.2%
[1]; OVERALL, 560 g/ha
  percent control Y (DIACAMBA OR ATRAZINE ALONE): 57.4%
[1]; Overall, 280 g/ha
  Y (dicamba alone): 29.8%
[1]; Overall, 560 g/ha
  Y (dicamba alone): 51.7%
[1]; PERCENT WEED FREE, 280 g/ha
  percent control Y (DIACAMBA OR ATRAZINE ALONE): 64.5%
[1]; PERCENT WEED FREE, 560 g/ha
  percent control Y (DIACAMBA OR ATRAZINE ALONE): 74.2%
[1]; POROL, 280 g/ha
  percent control Y (DIACAMBA OR ATRAZINE ALONE): 35.8%
  Y (dicamba alone): 27.8%
[1]; POROL, 560 g/ha
  percent control Y (DIACAMBA OR ATRAZINE ALONE): 49.2%
  Y (dicamba alone): 45.0%
[1]; Percent Weed Free, 280 g/ha
  Y (dicamba alone): 43.4%
[1]; Percent Weed Free, 560 g/ha
  Y (dicamba alone): 54.3%
[1]; RCHBR, 280 g/ha
  percent control Y (DIACAMBA OR ATRAZINE ALONE): 2.4%
  Y (dicamba alone): 8.5%
[1]; RCHBR, 560 g/ha
  percent control Y (DIACAMBA OR ATRAZINE ALONE): 89.0%
  Y (dicamba alone): 88.8%
[1]; TAGMI, 280 g/ha
  percent control Y (DIACAMBA OR ATRAZINE ALONE): 0.0%
  Y (dicamba alone): 0.0%
[1]; TAGMI, 560 g/ha
  percent control Y (DIACAMBA OR ATRAZINE ALONE): 92.5%
  Y (dicamba alone): 64.3%
[1]; XANST, 280 g/ha
  percent control Y (DIACAMBA OR ATRAZINE ALONE): 15.3%
  Y (dicamba alone): 28.8%
[1]; XANST, 560 g/ha
  percent control Y (DIACAMBA OR ATRAZINE ALONE): 43.3%
  Y (dicamba alone): 32.5%
velvetleaf; 280 g/ha, 24 days after application
  PERCENT CONTROL (ACTUAL): 82.0%
velvetleaf; 560 g/ha, 24 days after application
  PERCENT CONTROL (ACTUAL): 95.0%
velvetleaf; Table 8-D, velvetleaf, 24 days, dose 280 g/ha
  PERCENT CONTROL (ACTUAL): 82.0%
velvetleaf; Table 8-D, velvetleaf, 24 days, dose 560 g/ha
  PERCENT CONTROL (ACTUAL): 95.0%

## CSc1nnc(C(C)(C)C)c(=O)n1N [Metribuzin, 4-amino-6-(1,1-dimethylethyl)-3-(methylthio)-1,2,4-triazin-5(4H)-one]
velvetleaf; Table 8-C, velvetleaf, 24 days, dose 420 g/ha
  PERCENT CONTROL (ACTUAL): 22.0%
velvetleaf; Table 8-C, velvetleaf, 24 days, dose 840 g/ha
  PERCENT CONTROL (ACTUAL): 68.0%
velvetleaf; Table 8-D, velvetleaf, 24 days, dose 420 g/ha
  PERCENT CONTROL (ACTUAL): 22.0%
velvetleaf; Table 8-D, velvetleaf, 24 days, dose 840 g/ha
  PERCENT CONTROL (ACTUAL): 68.0%
